Literature values in patent US7588929B2, “Production of bacteriophage compositions for use in phage therapy” (Phage Biopharm LLC, priority 2002, dated 2009).

System: phage-2 inactivation by BI-LPS
Conditions: inactivation 95% in controls without sugar
In the case of `O=CC[C@@H](O)[C@H](O)[C@H](O)CO` [2-deoxy-D-glucose], the “concentration reducing inactivation to 50%” value is listed as 1 M. For `O=C[C@H](O)[C@@H](O)[C@@H](O)[C@H](O)CO` [D-galactose], the “concentration reducing inactivation to 50%” value is listed as “about 1.4 M”. For `N[C@H]1C(O)O[C@H](CO)[C@@H](O)[C@@H]1O` (stereo partly drawn) [D-glucosamine], the “concentration reducing inactivation to 50%” value is listed as 0.25-0.3 M. For `O=C[C@H](O)[C@@H](O)[C@H](O)[C@H](O)CO` [D-glucose], the “concentration reducing inactivation to 50%” value is given as 1 M. In the case of `O=C[C@@H](O)[C@@H](O)[C@H](O)[C@H](O)CO` [D-mannose], the “concentration reducing inactivation to 50%” value is listed as 1 M. In the case of `O=C[C@H](O)[C@@H](O)[C@H](O)CO` [D-xylose], the “concentration reducing inactivation to 50%” value is given as “about 1.4 M”. In the case of `C[C@H](O)[C@H](O)[C@@H](O)[C@@H](O)C=O` [L-rhamnose], the “concentration reducing inactivation to 50%” value is listed as 1 M. In the case of `CC(=O)N[C@H]1C(O)O[C@H](CO)[C@@H](O)[C@@H]1O` (stereo partly drawn) [N-acetyl-D-glucosamine], the “concentration reducing inactivation to 50%” value is given as “about 1.4 M”.
